From patent US11963964B2, “Small molecules for mouse satellite cell proliferation” (President and Fellows of Harvard College, priority 2011, dated 2024)
“Also recorded” adds a separate entry of the source.

How the values were obtained:
[1] = tested on: satellite cells; experiment: Satellite cell proliferation in combination with TGF-beta inhibitor (Alk5 inhibitor II); assay type: cell-based, mouse
[2] = tested on: satellite cells from Tg:Pax7-nGFP mice; experiment: LINCS library screen for satellite cell proliferation (Hoechst 33342 high content imaging); assay type: cell-based, mouse; settings: satellite cells cultured for 4 days, 96w plates
Description: This example includes a list of primary hits from a screen designed to identify compounds that promote satellite cell proliferation in vitro. The satellite cell is a skeletal muscle stem cell responsible for post-natal muscle growth and regeneration. […] The four compound libraries tested, LINCS 1, 2, 3 and 4, were provided to us by the Sorger lab at Harvard Medical School. The Sorger lab is a member of the LINCS (Library of Integrated Network-Based Cellular Signatures) Consortium, which is an NIH initiative aiming to generate public data to further research of therapeutically relevant cellular pathways. LINCS 1, 2, and 4 contain kinase inhibitors, while LINCS 3 contains epigenetic modifiers.
FIG. 50 identifies small molecules that promote satellite cell proliferation screen in this Example. (A) Chemical screen experimental schematic outlining FACS isolation and compound library treatment of satellite cells. (B) Representative dose response curves from four of the top ten compounds. Top ten compounds were chosen based on highest fold change of cell proliferation relative to vehicle controls. Proliferation was assessed via high content imaging using Hoechst 33342 as a cell marker. (C) Representative fluorescent images of FACS sorted satellite cells from Tg:Pax7-nGFP mice on 96w plates cultured for 4 days and treated with vehicle, compound or positive control (Jak3 inhibitor 6). Optimal treatment concentration for each compound was determined in dose response; 3 uM for XMD8-92, 5 uM for SB23906, 800 nM for XMD11-50, and 400 nM for Vorinostat. Hoechst 33342 was used as a cell marker. Scale bars denote 100 um. (D) Fold change relative to vehicle control for several compounds that promote satellite cell expansion.
Satellite cells were isolated from intact limb muscle and prepared for fluorescence activated cell sorting (FACS) as described previously (Rocheteau et al., 2012). FACS was performed at Harvard University at the Bauer Flow Cytometry Core Facility on a Beckman Coulter MoFlo Legacy (Beckman Coulter). Satellite cells were sorted into Eppendorf tubes, and plated onto 96 well plates by hand (Greiner). Plates were pre-coated at 37° C. for 4 hours with […] laminin diluted in PBS. Sorted cells were cultured in StemSpan SFEM II basal medium (Stem Cell Technologies) supplemented with 0.05 ng/mL basic fibroblast growth factor (bFGF, Life Technologies). Wells for the positive control were treated with 600 nM Jak3 inhibitor IV (EMD Millipore). For screening and dose response follow up, cells were plated at 150 cells/well.
The day cells were plated was considered Day 0. Compounds were added on Day 1. For screening and dose response follow up, cells were incubated without media change until Day 4 and plates were prepared for imaging. […]

[3] = tested on: satellite cells (SMPs); experiment: Differentiation of compound-treated SMPs into myotubes (myosin heavy chain staining); assay type: cell-based, mouse; settings: compound in proliferation conditions, then differentiation media
Description: CAG-EGFP satellite cells were grown in the inventors' standard proliferation conditions and exposed to compounds for four days. Under the inventors' standard proliferation conditions cells were cultured on laminin-coated plates in Ham's F-10 medium supplemented with 10% heat inactivated horse serum, 100Units/mL penicillin/100 ug/mL streptomycin, and 2 mM L-glutamine. Compounds were added the day after plating. The compounds and media were either refreshed daily or after three days. To differentiate cells and form myotubes, after four days in proliferation conditions, media was switched to high-glucose DMEM supplemented with 10% heat inactivated horse serum, 10% fetal bovine serum, 0.5% chick embryo extract, 100Units/mL penicillin/100 ug/mL streptomycin, and 2 mM L-glutamine. Cultures were grown in differentiation media for 3-5 days until myotube formation was observed, then fixed. Cultures were then switched into differentiation media and cultured another four days. They were then fixed and stained with anti-myosin heavy chain (red channel) and Hoechst (blue channel).
For these experiments, 300 cells were plated in each well at Day 0 in our standard proliferation media (10% horse serum in F-10). […]
The inventors also assessed effects these compounds were having on the identity of the satellite cells and their ability to differentiate in culture. […]

[4] = tested on: satellite cells; experiment: Satellite cell proliferation screen and dose response, image-based cell count; design: species or system mouse; settings: for activity on in vitro satellite cell proliferation (in words): screen hits tested in dose response / retest
[5] = tested on: satellite cells (SMPs); experiment: Satellite cell (SMP) proliferation with or without bFGF, 300 cells/well; assay type: cell-based, mouse; settings: for additive or synergistic action with bFGF: compound plus bFGF versus bFGF alone (FIGS. 15-17, 28, 29)
[6] = tested on: myoblasts; experiment: Myoblast differentiation in differentiation media (5% horse serum); assay type: cell-based; settings: differentiation media comprising 5% horse serum (FIG. 39)
[7] = tested on: satellite cells from aged and young tissue; experiment: Proliferation of satellite cells from aged and young mice; assay type: cell-based, mouse; settings: aged cells as well as young cells (FIGS. 24, 25)
[8] = tested on: primary fibroblasts; experiment: Specificity test on Sca1-positive fibroblasts (Ki67); assay type: cell-based, mouse; settings: primary fibroblasts (FIG. 23)
[9] = tested on: human satellite cells; experiment: Expansion of human satellite cells; assay type: cell-based

Question: How did the “proliferation on addition of Alk5 inhibitor II to the cultures” value ([1]; Alk5 inhibitor II alone) turn out when Alk5 inhibitor II was run?
Answer: slight increase in proliferation

Question: Which “optimal treatment concentration determined in dose response” value (“optimal treatment concentration” below) [2] does the source give for `O=C(CCCCCCC(=O)Nc1ccccc1)NO` [Vorinostat, suberoylanilide hydroxamic acid] here?
Answer: 400 nM

Question: Which results are given for “bFGF: basic fibroblast growth factor, positive control”?
Answer: ability of treated cells to differentiate and fuse to form myotubes [3]: able to form large myotubes; number of cells per well at the end of the assay ([4]; 50 cells/well plated, Day 4, DMSO-treated wells around 50 cells): 150-250 cells; level of proliferation, fold change over the DMSO vehicle control ([4]; FIG. 3A, positive control, DMSO 1±0.3): 3.4±0.9 fold change; level of proliferation, fold change over the DMSO vehicle control (normalized value) ([4]; FIG. 3B, re-supplied compounds dose response, 50 cells/well, positive control, DMSO 1±0.4): 5.6±1.7 fold change; increase in the cell number, bFGF alone ([5]; FIG. 28): six-fold

Question: For `CCCC1O[C@@H]2C[C@H]3[C@@H]4CCC5=CC(=O)C=C[C@]5(C)[C@H]4[C@@H](O)C[C@]3(C)[C@]2(C(=O)CO)O1` (stereo partly shown) [Budesonide], which “activity on in vitro satellite cell proliferation (in words)” value (from here on “activity”) [4] is on record?
Answer: identified and validated; also recorded: proliferation levels much greater than that seen in the negative control

Question: And the “additive or synergistic action with bFGF” value [5]?
Answer: no additional increase

Question: Which “ability of treated cells to differentiate and fuse to form myotubes” value [3] does the source give for `OC[C@H]1O[C@@H](n2cnc3c(NC4CCCC4)ncnc32)[C@H](O)[C@@H]1O` [N6-cyclopentyladenosine] here?
Answer: able to form myotubes

Question: What about the “additive effect with TGF-beta inhibitor (Alk5 inhibitor II)” value ([1]; compound plus Alk5 inhibitor II (FIGS. 21, 32)) of the same compound?
Answer: slight increase in proliferation

Question: What about the “activity” value [4] of the same compound?
Answer: identified and validated; also recorded: increase in vitro satellite cell proliferation

Question: And the “activity” value ([4]; listed as CPA)?
Answer: proliferation levels much greater than that seen in the negative control

Question: And the “increase in the cell number, combination of CPA and bFGF” value ([5]; CPA 30 μM + bFGF (FIG. 28))?
Answer: fifteen-fold

Question: What about the “additive or synergistic action with bFGF” value [5] of the same compound?
Answer: seen to synergize with bFGF

Question: And the myoblast differentiation [6]?
Answer: drive myoblast differentiation

Question: With `C[C@]12O[C@H](C[C@]1(O)CO)n1c3ccccc3c3c4c(c5c6ccccc6n2c5c31)CNC4=O` [CEP701, Lestaurtinib] as the compound, how does the optimum concentration [7] read?
Answer: 50 nM

Question: What about the “proliferation of the input SMP cells (level)” value ([4]; retest, DMSO-treated cells 1±0.3 in both trials) of the same compound?
Answer: ~4.7±1.4

Question: And the “effect on fibroblast proliferation” value [8]?
Answer: no effect

Question: What about the “increase in proliferation, CEP701 and bFGF together” value ([5]; 0.05 μM CEP701 + 5 ng/mL bFGF daily, 300 cells/well, fixed four days after plating (FIG. 14)) of the same compound?
Answer: 8 fold

Question: For `CCOc1cc(N2CCC(O)CC2)ccc1Nc1ncc2c(n1)N(C)c1ccccc1C(=O)N2C` [XMD8-92], which “optimal treatment concentration” value [2] is on record?
Answer: 3000 nM

Question: How did the “optimal treatment concentration” value [2] turn out when `COc1nccc(-c2c(-c3ccc(F)cc3)ncn2C2CCC(O)CC2)n1` (stereo not shown) [SB23906] was run?
Answer: 5000 nM

Question: With `CC(C)(C)c1cc(NC(=O)Nc2ccc(-c3cn4c(n3)sc3cc(OCCN5CCOCC5)ccc34)cc2)no1` [AC220, quizartinib] as the compound, how does the “expansion of human satellite cells (in words)” value [9] read?
Answer: ability to expand human satellite cells at low doses

Question: `COc1cc(C(=O)N2CCC(N3CCN(C)CC3)CC2)ccc1Nc1ncc2c(n1)N(C)c1ccccc1C(=O)N2C` [XMD11-50] was tested. Which “optimal treatment concentration” value [2] did it give?
Answer: 800 nM

Question: For `N#C/C(=C\c1ccc(O)c(O)c1)C(=O)NCc1ccccc1` [Tyr AG490], which myoblast differentiation [6] is on record?
Answer: drive myoblast differentiation
